Here are results for four substances from patent US8440637B2, “Combination treatment for the treatment of hepatitis C virus infection” (priority 2007, dated 2013).

Strand notation (5' to 3'): a small letter for the sugar, then the base; units joined by * are phosphorothioate-linked, units joined directly phosphodiester-linked; [ ] holds rarer units or linkages, { } end groups; capitals alone tell only the bases. l = locked nucleic acid (LNA); [5mC] = 5-methylcytosine; d = 2'-deoxy (DNA)

The subject of data set [1] is ApoB-100 mRNA. Briefly: ApoB-100 mRNA expression in liver by qPCR after dosing apoB antisense oligonucleotides. It counts as in vivo, mouse. As to the method: (§1) In this study 5 mg/kg/dose were dosed on 3 consecutive days (one dose/day i.v.) and animals were sacrificed 24 hours after last dosing. At sacrifice, liver and retro orbital sinus blood was sampled. Serum was prepared from blood for analysis of cholesterol. RNA was isolated from the liver and the expression of ApoB-100 mRNA was measured.
(§2) In this study three different concentrations (10, 15 and 25 mg/kg) of SEQ ID NO 17 (Table 1) and SEQ ID NO 34 (Table 1) were examined for duration of action on ApoB-100 mRNA expression and serum cholesterol level. SEQ ID NO 17 and SEQ ID NO 34 were given as a single dose of 10, 15 or 25 mg/kg to C57BL/6 female mice. Mice were sacrificed at different time points (1, 3, 5 and 8 days) after dosing; liver and serum were examined for ApoB-100 mRNA expression, liver oligonucleotide concentration and cholesterol and ALT, respectively.
Liver sampled at sacrifice was analysed for ApoB-100 mRNA expression by qPCR. Data was normalized to Gapdh and presented relative to the data obtained by dosing saline. One dose of 10, 15 or 25 mg/kg of SEQ ID NO 17 or SEQ ID NO 34 was very effective to down regulate ApoB-100 mRNA in liver (FIG. 3).
A single dose of SEQ ID NO 17 (Table 1) and SEQ ID NO 34 (Table 1) at different concentrations was administered to C57BL/6J mice to find ED50 values for cholesterol. Duration of action was also included in this study, because we previously have seen that maximum effect of a single dose not always was achieved 24 hours after dosing. […] In this study we therefore have chosen lower concentrations (1, 2.5 and 5 mg/kg).
Liver sampled at sacrifice was analysed for ApoB-100 mRNA expression by qPCR. Data was normalized to Gapdh and presented relative to the data obtained by dosing saline. One dose of 10, 15 or 25 mg/kg of SEQ ID NO 17 or SEQ ID NO 34 was very effective to down regulate ApoB-100 mRNA in liver (FIG. 5).
The effect on ApoB-100 mRNA was examined at different days after dosing 1.0 or 5.0 mg/kg (one dose day 0) of the three LNA antisense oligonucleotides 12-mer SEQ ID NO 34 (Table 1), SEQ ID NO 26 (Table 1) 13-mer and 14-mer SEQ ID NO 17 (Table 1) all targeting ApoB mRNA.
Liver sampled at sacrifice was analysed for ApoB-100 mRNA expression by qPCR. Data was normalized to Gapdh and presented relative to the data obtained by dosing saline. Dosing 3* 1 or 5 mg/kg of SEQ ID NO 34, SEQ ID NO 17 or SEQ ID NO 26 was very effective to down regulate ApoB-100 mRNA in liver (FIG. 7). […] SEQ ID NO 17 dosed 3* 1 mg/kg/dose or 5 mg/kg/dose down regulated target mRNA with 50% and 70% respectively.
For orientation: In qPCR the cycle at which signal appears reflects the starting amount.

The test system of data set [2] is ApoB-100 mRNA. The data set can be described thus: Serum total cholesterol after dosing apoB antisense oligonucleotides. Type of data set: in vivo, mouse. As to conditions: for reduction of serum cholesterol: dosing 3*1 mg/kg. As to the method:
Total cholesterol level is measured in plasma using a colometric assay Cholesterol CP from ABX Pentra. The cholesterol is measured following enzymatic hydrolysis and oxidation. 21.5 μL water was added to 1.5 μL plasma. 250 μL reagent is added and within 5 min the cholesterol content is measured at a wavelength of 540 nm. Measurements on each animal was made in duplicates. The sensitivity and linearity was tested with 2 fold diluted control compound (ABX Pentra N control). The relative Cholesterol level was determined by subtraction of the background and presented relative to the cholesterol levels in plasma of saline treated mice.
as §1, §2
Blood serum used to measure cholesterol was sampled at sacrifice. Twenty-four hours after dosing SEQ ID NO 17 serum total cholesterol was reduced 25-40%, and dosing SEQ ID NO 34 gave 40-55% reduction in total cholesterol. At day 3, the total cholesterol level was further reduced: SEQ ID NO 17 gave 70-90% reduction in a dose dependent manner after doing 10, 15 or 25 mg/kg. SEQ ID NO 34 reduced total cholesterol with 90-95% relative to the saline control group. At day 5-8 the total cholesterol level increased in all groups except the group dosed SEQ ID NO 17 at 10 mg/kg. (FIG. 4.).
Blood serum was sampled at sacrifice and used to measure cholesterol. The serum total cholesterol level reflected the mRNA expression of ApoB-100; dose dependent reduction with best effect at 5 days after dosing SEQ ID NO 17 at 1 and 2.5 mg/kg and similar effect at days 3, 5 and 8 after dosing 5 mg/kg (50% reduction). Dose dependent effect was also obtained after dosing SEQ ID NO 34 with best effect at day 3 after dosing 5 mg/kg (70% reduction) with following increase in cholesterol level (60% reduction at day 8 and 45% at day 16).
At sacrifice blood for serum was sampled and used to measure cholesterol.

Data set [3] has as its system miR-122a. The data set can be described thus: Melting temperature (Tm) of LNA anti-miR/miR-122a RNA duplex. Type of data set: physicochemical, human. As to conditions: Table 2; towards synthetic miR-122a RNA oligonucleotide with phosphorothioate linkages; PS backbone. As to the method:
The melting temperatures were assessed towards the mature miR-122a sequence, using a synthetic miR-122a RNA oligonucleotide with phosphorothioate linkaged.
The LNA anti-miR/miR-122a oligo duplex was diluted to 3 μM in 500 μl RNase free H2O, which was then mixed with 500 μl 2× dimerization buffer (final oligo/duplex conc. 1.5 μM, 2× Tm buffer: 200 mM NaCl, 0.2 mM EDTA, 20 mM NaP, pH 7.0, DEPC treated to remove RNases). The mix was first heated to 95 degrees for 3 minutes, then allowed to cool at room temperature (RT) for 30 minutes.
Following RT incubation Tm was measured on Lambda 40 UV/VIS Spectrophotometer with peltier temperature progammer PTP6 using PE Templab software (Perkin Elmer). The temperature was ramped up from 20° C. to 95° C. and then down again to 20° C., continuously recording absorption at 260 nm. First derivative and local maximums of both the melting and annealing was used to assess melting/annealing point (Tm), both should give similar/same Tm values. For the first derivative 91 points was used to calculate the slope.

Data set [4] deals with miR-122a. Briefly: miR-122a levels in mouse liver by microRNA specific qPCR. As to conditions: 25 mg/kg i.v. on 3 successive days; 24 hour after last dose. It counts as in vivo. As to the method: Total RNA was extracted from liver samples as described above and analysed for miR-122a levels by microRNA specific QPCR.
In vivo study: Ten groups of animals (female C57/BL6; 3 mice per group) were treated in the following manner. Group 1 animals were injected with 0.2 ml saline by i.p. on day 0, day 2 and day 4. Groups 2-10 were dosed by i.p. with three different conc. (25 mg/kg, 5 mg/kg and 1 mg/kg) of either LNA antimiR-122a/SEQ ID NO: 61 (group 2-4), LNA antimir-122a/SEQ ID NO: 66 (group 5-7) or LNA antimir-122a/SEQ ID NO: 63 (group 8-10); the LNA antimir-122a sequences are given in the Table 1. All three LNA antimiR-122a oligonucleotides target the liver-specific miR-122a. The doses were calculated from the Day 0 body weights of each animal.
The animals were sacrificed 48 hours after last dose (Day 6), retro-orbital blood was collected in tubes containing EDTA and the plasma fraction harvested and stored frozen −80° C. for cholesterol analysis. At sacrifice livers were dissected and one portion was cut into 5 mm cubes and immersed in 5 volumes of ice-cold RNAlater. A second portion was snap frozen in liquid nitrogen and stored for cryo-sectioning.
Total RNA was extracted from liver samples using Trizol reagent according to the manufacturer's recommendations (Invitrogen, USA) and analysed for miR-122a levels by microRNA-specific QPCR according to the manufacturer's recommendations (Ambion, USA). […]
NMRI female mice were treated with indicated doses of LNA-antimiR (SEQ ID NO: 61) along with a mismatch control (m, SEQ ID NO: 65), saline and antagomir (SPC3595) for three consecutive days and sacrificed 24 hours after last dose (as in example 11 “old design”, n=5). miR-122 levels were analyzed by qPCR and normalized to the saline treated group.
C57BL/6J female mice were fed on high fat diet for 13 weeks before the initiation of the SEQ ID NO: 63 treatment. […] Both hypercholesterolemic and normal mice were treated i.p. twice weekly with 5 mg/kg SEQ ID NO: 63 and the corresponding mismatch control for a study period of 5½ weeks. Blood samples were collected weekly and total plasma cholesterol was measured during the entire course of the study. Upon sacrificing the mice, liver and blood samples were prepared for total RNA extraction, miRNA and mRNA quantification, assessment of the serum transaminase levels, and liver histology.
The miR-122 and let-7a microRNA levels were quantified with TaqMan microRNA Assay (Applied Biosystems) following the manufacturer's instructions. The RT reaction was diluted ten times in water and subsequently used for real time PCR amplification according to the manufacturer's instructions. A two-fold cDNA dilution series from liver total RNA of a saline-treated animal or mock transfected cells cDNA reaction (using 2.5 times more total RNA than in samples) served as standard to ensure a linear range (Ct versus relative copy number) of the amplification. Applied Biosystems 7500 or 7900 real-time PCR instrument was used for amplification.

For the substance “5′-Gs^MeCsaststsgsgstsastsTs^MeC-3′ (antisense lG*l[5mC]*dA*dT*dT*dG*dG*dT*dA*dT*lT*l[5mC]) [SEQ ID NO: 34]”, the “ApoB-100 mRNA down-regulation (in words)” value with ApoB-100 mRNA [1] (10, 15 or 25 mg/kg SEQ ID NO 34, 25 mg/kg SEQ ID NO 17) was “completely down-regulated”. Besides, the “down regulation of ApoB-100 mRNA” value with ApoB-100 mRNA [1] (liver, 3 doses of 5 mg/kg/dose i.v. on consecutive days, 24 hours after last dosing) is “about 75%”; in the data set on ApoB-100 mRNA [1] (liver, dosing 3*1 mg/kg i.v.), 60%; with ApoB-100 mRNA [1] (liver, dosing 3*5 mg/kg i.v.) it was 90%; in the data set on ApoB-100 mRNA [1] (single dose 5 mg/kg, days 5-16), “about 75%”. For the same substance, the “down regulation of ApoB-100 mRNA relative to saline” value in the data set on ApoB-100 mRNA [1] (liver, single dose of 10, 15 or 25 mg/kg, C57BL/6 female mice, 24 hours after dosing) is 90-95%. Besides, the “reduction of ApoB-100 mRNA expression” value in the data set on ApoB-100 mRNA [1] (single dose 2.5 mg/kg, day 8) worked out at 75%. The “ApoB-100 mRNA down regulation” value in the data set with ApoB-100 mRNA [1] (single dose 5 mg/kg, day 16) is reported as 75%. In addition, the “effect on serum total cholesterol (in words)” value in the data set on ApoB-100 mRNA [2] (3 doses of 5 mg/kg/dose i.v., day 3, oligos of different length compared) is “the best or the most potent effect”. Further, the “reduction of serum cholesterol” value in the data set on ApoB-100 mRNA [2] worked out at 60%. Also, the “reduction of serum total cholesterol” value with ApoB-100 mRNA [2] (single dose 5 mg/kg, day 3) was 70%; in the data set with ApoB-100 mRNA [2] (single dose 5 mg/kg, day 8) it was 60%; in the data set with ApoB-100 mRNA [2] (single dose 5 mg/kg, day 16), 45%; in the data set on ApoB-100 mRNA [2] (single dose of 10, 15 or 25 mg/kg, 24 hours after dosing) it was 40-55%; in the data set on ApoB-100 mRNA [2] (single dose of 10, 15 or 25 mg/kg, day 3), 90-95%.

On to “5′-Gs^MeCsaststsgsgstsastsTs^MeCsA-3′ (antisense lG*l[5mC]*dA*dT*dT*dG*dG*dT*dA*dT*lT*l[5mC]*lA) [SEQ ID NO: 26]”, for which the “down regulation of ApoB-100 mRNA” value in the data set with ApoB-100 mRNA [1] (liver, dosing 3*1 mg/kg i.v.) is 60%; with ApoB-100 mRNA [1] (liver, dosing 3*5 mg/kg i.v.) it was 90%. Moreover, the “reduction of serum cholesterol” value in the data set on ApoB-100 mRNA [2] was 60%.

As to “5′-cCatTgtCacActCca-3′ (antisense dC*l[5mC]*dA*dT*lT*dG*dT*l[5mC]*dA*dC*lA*dC*dT*l[5mC]*dC*dA) [SEQ ID NO: 60]”, in the data set with miR-122a [3], the “Tm (° C.)” value came to 75 °C.

As to “5′-ccAttGtcTcaAtcCa-3′ (antisense dC*dC*lA*dT*dT*lG*dT*dC*lT*dC*dA*lA*dT*dC*l[5mC]*dA) [SEQ ID NO: 65, reference compound]”, the “Tm (° C.)” value with miR-122a [3] is 46 °C. For the same substance, in the data set on miR-122a [4], the “miR-122a inhibition in liver (in words)” value is “no miR-122a inhibition was detected”.
